± gives the standard deviation of the averaged measurements.
Experiments:
[1] = compound: Cc1nc(Nc2n[nH]c3c2CN(C(=O)N[C@H](CN(C)C)c2ccccc2)C3(C)C)c2sccc2n1; test: surviving fraction relative to DMSO-only wells; higher = less growth inhibition; settings: exposure time: 5 days
Outline: (§1)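 Viability was scored with CellTiter-Glo luminescence and normalised to the median of DMSO-only wells as surviving fraction. Beforehand, log-phase tumour cell lines were seeded at 250–500 cells per well in 384-well plates, allowed 24 hours, and exposed continuously for five days to inhibitors at 0.5, 1, 5, 10, 50, 100, 500 and 1000 nM. Only lines whose three screens gave replicate Pearson r >0.7 and median Z' >0.3 were kept.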

AZD4547 = compound: COc1cc(CCc2cc(NC(=O)c3ccc(N4CC(C)NC(C)C4)cc3)n[nH]2)cc(OC)c1 [AZD4547]; test: as above; settings: exposure time: 5 days
Outline: as §1

Test System | surviving fraction ([1]; 0.5 nM) | surviving fraction ([1]; 1 nM) | surviving fraction ([1]; 5 nM) | surviving fraction ([1]; 10 nM) | surviving fraction ([1]; 50 nM) | surviving fraction ([1]; 100 nM) | surviving fraction ([1]; 500 nM) | surviving fraction ([1]; 1000 nM) | surviving fraction (AZD4547; 0.5 nM) | surviving fraction (AZD4547; 1 nM) | surviving fraction (AZD4547; 5 nM) | surviving fraction (AZD4547; 10 nM) | surviving fraction (AZD4547; 50 nM) | surviving fraction (AZD4547; 100 nM) | surviving fraction (AZD4547; 500 nM) | surviving fraction (AZD4547; 1000 nM)
HU09 BONE | 0.811 ± 0.053 | 0.67 ± 0.084 | 0.473 ± 0.049 | 0.425 ± 0.081 | 0.381 ± 0.046 | 0.339 ± 0.028 | 0.174 ± 0.023 | 0.111 ± 0.007 | 0.983 ± 0.077 | 0.982 ± 0.16 | 1.03 ± 0.089 | 1.07 ± 0.061 | 0.797 ± 0.066 | 0.856 ± 0.026 | 0.624 ± 0.062 | 0.419 ± 0.031
JIMT1 BREAST | 0.993 ± 0.035 | 0.985 ± 0.03 | 0.888 ± 0.029 | 0.839 ± 0.047 | 0.559 ± 0.041 | 0.51 ± 0.041 | 0.398 ± 0.029 | 0.323 ± 0.0049 | 0.99 ± 0.016 | 1.03 ± 0.04 | 1.018 ± 0.0059 | 1.02 ± 0.0097 | 1.032 ± 0.0075 | 1.07 ± 0.032 | 1.05 ± 0.02 | 1.06 ± 0.03
JURKAT HAEMATOPOIETIC AND LYMPHOID TISSUE | 1.01 ± 0.032 | 0.939 ± 0.02 | 0.169 ± 0.0038 | 0.095 ± 0.0044 | 0.0877 ± 0.004 | 0.086 ± 0.001 | 0.06 ± 0.001 | 0.051 | 1 ± 0.027 | 1.06 ± 0.036 | 1.01 ± 0.026 | 1.04 ± 0.021 | 0.967 ± 0.034 | 0.951 ± 0.033 | 1.04 ± 0.018 | 1 ± 0.035
KPD BONE | 0.632 ± 0.036 | 0.569 ± 0.027 | 0.425 ± 0.042 | 0.344 ± 0.011 | 0.259 ± 0.021 | 0.224 ± 0.027 | 0.0937 ± 0.01 | 0.058 ± 0.0053 | 0.961 ± 0.049 | 0.945 ± 0.078 | 0.991 ± 0.094 | 0.984 ± 0.024 | 1 ± 0.067 | 0.956 ± 0.088 | 0.804 ± 0.039 | 0.642 ± 0.036
LM7 BONE | 0.842 ± 0.039 | 0.674 ± 0.036 | 0.51 ± 0.0046 | 0.457 ± 0.046 | 0.386 ± 0.033 | 0.327 ± 0.036 | 0.115 ± 0.006 | 0.0547 ± 0.0084 | 0.914 ± 0.098 | 0.959 ± 0.086 | 1.07 ± 0.044 | 0.982 ± 0.048 | 0.939 ± 0.064 | 0.985 ± 0.12 | 0.762 ± 0.034 | 0.571 ± 0.086
MCF7 BREAST | 0.89 ± 0.077 | 0.857 ± 0.024 | 0.621 ± 0.036 | 0.746 ± 0.035 | 0.547 ± 0.01 | 0.546 ± 0.022 | 0.395 ± 0.019 | 0.486 ± 0.0057 | 0.925 ± 0.062 | 0.918 ± 0.038 | 0.948 ± 0.074 | 0.931 ± 0.036 | 1 ± 0.069 | 0.9181 ± 0.0017 | 0.921 ± 0.066 | 0.924 ± 0.063
MDAMB134 BREAST | 0.805 ± 0.016 | 0.954 ± 0.014 | 0.909 ± 0.029 | 0.924 ± 0.02 | 1.04 ± 0.044 | 1.02 ± 0.017 | 1.13 ± 0.035 | 0.961 ± 0.2 | 1.04 ± 0.28 | 1.04 ± 0.088 | 1.01 ± 0.083 | 0.922 ± 0.078 | 0.973 ± 0.14 | 0.899 ± 0.089 | 1.04 ± 0.028 | 1.05 ± 0.17
MDAMB157 BREAST | 0.841 ± 0.14 | 0.792 ± 0.055 | 0.623 ± 0.11 | 0.545 ± 0.019 | 0.405 ± 0.055 | 0.29 ± 0.048 | 0.159 ± 0.013 | 0.119 ± 0.021 | 0.981 ± 0.036 | 0.967 ± 0.12 | 0.932 ± 0.069 | 0.768 ± 0.035 | 0.642 ± 0.13 | 0.537 ± 0.048 | 0.562 ± 0.1 | 0.374 ± 0.039
MDAMB231 BREAST | 0.964 ± 0.023 | 0.923 ± 0.029 | 0.667 ± 0.012 | 0.591 ± 0.019 | 0.474 ± 0.0092 | 0.433 ± 0.022 | 0.205 ± 0.0056 | 0.0829 ± 0.0099 | 0.973 ± 0.018 | 1.02 ± 0.025 | 1.009 ± 0.0064 | 1.02 ± 0.033 | 1.02 ± 0.019 | 1.06 ± 0.032 | 1.06 ± 0.035 | 1.06 ± 0.028
MDAMB361 BREAST | 1.028 ± 0.0062 | 1.13 ± 0.074 | 1.1 ± 0.065 | 1.02 ± 0.072 | 0.837 ± 0.016 | 0.796 ± 0.054 | 0.5827 ± 0.004 | 0.238 ± 0.0081 | 0.908 ± 0.033 | 0.925 ± 0.028 | 1.04 ± 0.12 | 0.972 ± 0.064 | 0.967 ± 0.067 | 0.993 ± 0.061 | 0.851 ± 0.035 | 0.76 ± 0.052
MDAMB436 BREAST | 0.952 ± 0.044 | 1 ± 0.066 | 0.932 ± 0.07 | 0.856 ± 0.071 | 0.718 ± 0.016 | 0.61 ± 0.061 | 0.507 ± 0.025 | 0.432 ± 0.03 | 1.05 ± 0.053 | 0.9823 ± 0.0041 | 1.03 ± 0.12 | 0.942 ± 0.08 | 0.978 ± 0.059 | 0.958 ± 0.062 | 1.07 ± 0.023 | 1.02 ± 0.024
MDAMB453 BREAST | 1.14 ± 0.062 | 1.03 ± 0.037 | 0.648 ± 0.045 | 0.598 ± 0.018 | 0.416 ± 0.038 | 0.359 ± 0.048 | 0.23 ± 0.07 | 0.0803 ± 0.015 | 1.02 ± 0.074 | 1.094 ± 0.01 | 1.106 ± 0.004 | 1.11 ± 0.056 | 1.1 ± 0.019 | 0.825 ± 0.021 | 0.565 ± 0.021 | 0.585 ± 0.025
MDAMB468 BREAST | 1.054 ± 0.0091 | 0.914 ± 0.085 | 0.213 ± 0.02 | 0.19 ± 0.011 | 0.096 ± 0.004 | 0.102 ± 0.0076 | 0.0473 ± 0.0076 | 0.0353 ± 0.0015 | 1.04 ± 0.11 | 1.02 ± 0.055 | 1.13 ± 0.057 | 1.14 ± 0.062 | 1.02 ± 0.09 | 1.16 ± 0.096 | 1.06 ± 0.019 | 1.14 ± 0.042
MFM223 BREAST | 1.11 ± 0.074 | 1.03 ± 0.049 | 0.827 ± 0.015 | 0.637 ± 0.051 | 0.474 ± 0.021 | 0.349 ± 0.038 | 0.14 ± 0.013 | 0.0562 ± 0.005 | 1.02 ± 0.11 | 1.03 ± 0.034 | 0.616 ± 0.056 | 0.374 ± 0.041 | 0.244 ± 0.018 | 0.254 ± 0.015 | 0.298 ± 0.015 | 0.3 ± 0.021
MG63 BONE | 0.921 ± 0.038 | 0.805 ± 0.025 | 0.468 ± 0.0074 | 0.336 ± 0.024 | 0.257 ± 0.016 | 0.275 ± 0.0096 | 0.228 ± 0.015 | 0.227 ± 0.013 | 0.9447 ± 0.006 | 0.992 ± 0.012 | 0.929 ± 0.033 | 0.879 ± 0.048 | 0.662 ± 0.015 | 0.63 ± 0.041 | 0.576 ± 0.02 | 0.572 ± 0.018
MHM BONE | 0.953 ± 0.02 | 0.935 ± 0.016 | 0.924 ± 0.034 | 0.906 ± 0.015 | 0.692 ± 0.03 | 0.664 ± 0.022 | 0.559 ± 0.023 | 0.535 ± 0.014 | 0.961 ± 0.016 | 1 ± 0.006 | 0.995 ± 0.016 | 0.993 ± 0.021 | 0.776 ± 0.014 | 0.694 ± 0.0087 | 0.587 ± 0.0075 | 0.582 ± 0.011
NCIH441 LUNG | 0.955 ± 0.014 | 0.938 ± 0.1 | 0.637 ± 0.057 | 0.632 ± 0.0076 | 0.463 ± 0.026 | 0.452 ± 0.04 | 0.379 ± 0.048 | 0.329 ± 0.018 | 0.977 ± 0.026 | 1.09 ± 0.035 | 1.06 ± 0.011 | 1.06 ± 0.066 | 1.01 ± 0.038 | 1.02 ± 0.026 | 0.934 ± 0.17 | 0.929 ± 0.093
NOS1 BONE | 0.922 ± 0.046 | 0.847 ± 0.078 | 0.695 ± 0.051 | 0.657 ± 0.073 | 0.589 ± 0.062 | 0.559 ± 0.062 | 0.272 ± 0.043 | 0.134 ± 0.0068 | 0.971 ± 0.12 | 1.07 ± 0.13 | 0.913 ± 0.013 | 0.937 ± 0.064 | 0.87 ± 0.093 | 0.824 ± 0.055 | 0.385 ± 0.025 | 0.187 ± 0.036
NY BONE | 0.934 ± 0.041 | 0.725 ± 0.025 | 0.527 ± 0.016 | 0.467 ± 0.031 | 0.447 ± 0.014 | 0.402 ± 0.018 | 0.258 ± 0.011 | 0.0807 ± 0.0051 | 0.984 ± 0.052 | 1.03 ± 0.039 | 1.03 ± 0.049 | 0.894 ± 0.02 | 0.466 ± 0.0057 | 0.394 ± 0.019 | 0.359 ± 0.023 | 0.315 ± 0.026
OS25HAL BONE | 0.983 ± 0.016 | 0.954 ± 0.024 | 0.597 ± 0.036 | 0.367 ± 0.029 | 0.281 ± 0.007 | 0.258 ± 0.015 | 0.24 ± 0.032 | 0.218 ± 0.0047 | 0.99 ± 0.018 | 1.02 ± 0.02 | 1.037 ± 0.0085 | 1.04 ± 0.012 | 1.02 ± 0.016 | 1.036 ± 0.0095 | 0.948 ± 0.04 | 0.992 ± 0.018

Reference: the supplement of paper PMC6045584
